From patent US11788092B2, “Recombinant microorganisms and uses therefor” (LanzaTech, Inc., priority 2021, dated 2023)
In brackets after ≈: the same amount, converted by molar mass.

Experiments:
Synechococcus elongatus = details: Begemann et al. 2013; cited from earlier work
[1] = tested on: C. autoethanogenum strain with aldehyde::ferredoxin oxidoreductase (AOR) enzymes deleted; assay: 3-HP challenge experiment, autotrophic growth in Schott bottles; assay type: cell-based, Clostridium autoethanogenum
Protocol: FIGS. 2A-2B show autotrophic growth of Clostridium autoethanogenum Δaor strain in the presence of different amounts of 3-hydroxypropionic acid (at 0, 0.2, 0.5, 1, 2, 5 and 10 g/L) in Schott bottles. FIG. 2A: Growth profile; FIG. 2B: Peak Biomass. Unc=Unchallenged; N=2; Error bar=S.D.
To study the toxicity of 3-HP on autotrophic growth of C. autoethanogenum, a 3-HP challenge experiment (at 0, 0.2, 0.5, 1, 2, 5 and 10 g/L) was conducted in Schott bottles with synthetic gas blend (50% CO, 10% H2, 30% CO2 and 10% N2) using a strain with aldehyde::ferredoxin oxidoreductase (AOR) enzymes deleted (FIG. 2). […] Unc=Unchallenged; N=2; Error bar=S.D.

O=C(O)CCO [Strain 3-HP, 3-Hydroxypropionate]
minimal inhibitory concentration (Synechococcus elongatus): 180 mg/L (≈ 2000 µM) | effect on growth rate ([1]; 5 g/L 3-HP): reduced the growth rate | reduction of peak OD600 nm vs unchallenged culture ([1]; 5 g/L 3-HP, synthetic gas blend 50% CO, 10% H2, 30% CO2, 10% N2, N=2): 22% | effect on growth rate ([1]; 10 g/L 3-HP): more pronounced decrease in growth rate | decrease in peak OD600 nm vs unchallenged culture ([1]; 10 g/L 3-HP, synthetic gas blend 50% CO, 10% H2, 30% CO2, 10% N2, N=2): 40%
